Measured values reported in US5674905A, “Bicyclooctane and bicycloheptane derivatives” (James Black Foundation Limited, priority 1992, dated 1997).

Assays:
[1] = molecular target: T1, gastrin receptors (Rattus norvegicus, UniProt P30553); experiment: gastrin antagonist activity in an immature rat stomach assay (pentagastrin-stimulated acid secretion); settings: isolated immature rat stomach, cumulative pentagastrin dose-response curves; for Kb: read-out: Gastrin pKB (converted)
T1 construct: from tissue; host or cells: isolated perfused whole stomach of immature rats (33-50 g, ca. 21 days old)
T1 sequence (P30553 1-452): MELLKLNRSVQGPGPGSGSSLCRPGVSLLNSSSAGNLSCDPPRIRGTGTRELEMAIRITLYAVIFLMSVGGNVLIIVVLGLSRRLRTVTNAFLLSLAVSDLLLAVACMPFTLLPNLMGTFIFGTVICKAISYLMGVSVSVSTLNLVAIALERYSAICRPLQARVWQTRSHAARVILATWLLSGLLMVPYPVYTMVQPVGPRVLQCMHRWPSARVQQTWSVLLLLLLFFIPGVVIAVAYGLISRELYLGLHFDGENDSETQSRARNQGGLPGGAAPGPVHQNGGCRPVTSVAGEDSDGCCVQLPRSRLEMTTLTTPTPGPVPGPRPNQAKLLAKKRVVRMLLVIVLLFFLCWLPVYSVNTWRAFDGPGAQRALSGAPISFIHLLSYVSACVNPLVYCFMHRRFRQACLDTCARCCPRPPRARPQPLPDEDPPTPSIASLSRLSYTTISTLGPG
Description: The compounds of the examples were also tested for gastrin antagonist activity in an immature rat stomach assay. The procedure was as follows:
The oesophagus of immature rats (33-50 g, ca. 21 days old) was ligated at the level of the cardiac sphincter and the duodenal sphincter was cannulated. The stomach was excised and flushed with ca. 1 ml of unbuffered physiological saline solution. The fundus was punctured and cannulated. A further 4-5 ml of unbuffered solution was flushed through the stomach to ensure the preparation was not leaking. The stomach was lowered into a jacketed organ bath containing 40 ml of buffered solution containing 3×10^-8 M 5-methyl-furmethide, maintained at 37° and gassed vigorously with 95% O2 /5% CO2. The stomach was continuously perfused at a rate of 1 ml min^-1 with unbuffered solution gassed with 100% O2 with the perfusate passing over an internally referenced pH-electrode fixed 12 cm above the stomach.
After 120 min of stabilisation the drugs were added directly to the serosal solution in the organ bath and after a further 60 min cumulative pentagastrin dose-response curves were started. Changes in acid secretion were monitored and the curves analysed according to Black et. al., Br. J. Pharmacol., 1985, 86, 581.

[2] = molecular target: T2, CCKB receptor (Mus musculus, UniProt P56481); experiment: radioligand binding assay at the CCKB receptor in mouse cortical membranes ([125I]-CCK8S); settings: 150 min at 21±3°; for Ki: read-out: CCKB pKi (converted)
T2 construct: The cortex was dissected, weighed and homogenised in 40 ml ice-cold buffer; from tissue; host or cells: cerebral cortex membranes of male CD1 mice (Charles River)
T2 sequence (P56481 1-453): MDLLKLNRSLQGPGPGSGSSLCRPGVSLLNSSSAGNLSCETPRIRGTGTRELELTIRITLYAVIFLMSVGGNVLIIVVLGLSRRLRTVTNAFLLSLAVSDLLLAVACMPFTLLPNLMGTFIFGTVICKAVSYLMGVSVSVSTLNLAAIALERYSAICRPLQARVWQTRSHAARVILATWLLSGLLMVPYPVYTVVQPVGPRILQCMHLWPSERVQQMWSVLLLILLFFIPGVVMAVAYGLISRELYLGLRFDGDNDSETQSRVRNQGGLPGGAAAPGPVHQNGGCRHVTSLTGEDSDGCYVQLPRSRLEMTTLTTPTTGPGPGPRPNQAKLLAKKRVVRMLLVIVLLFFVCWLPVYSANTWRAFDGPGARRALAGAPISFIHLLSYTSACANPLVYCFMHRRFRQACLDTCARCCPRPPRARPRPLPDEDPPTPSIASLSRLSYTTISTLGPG
Procedure, shortened: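 Competition binding on cortical membranes from male CD1 mice in pH 7.2 HEPES buffer with bacitracin, using [125I]-CCK8S (200 pM) and test compound, 150 min at 21±3°. Non-specific binding defined with L-365,260 ([…]). Bound radioactivity collected by filtration and gamma-counted.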

[3] = molecular target: T3, CCKA (Cavia porcellus, UniProt Q63931); experiment: CCKA binding assay in guinea-pig pancreas membranes ([125I]-CCK8(S)); settings: 150 minutes at 21±3°; for Ki: 0.375 μM PD134,308, read-out: CCKA pKi (converted); for CCKA pKi: 0.375 μM PD134,308
T3 construct: The pancreatata were removed from male guinea-pigs (200-300 g; Dunkin Hartley); from tissue; host or cells: pancreas membranes of male Dunkin Hartley guinea-pigs
T3 sequence (Q63931 1-430): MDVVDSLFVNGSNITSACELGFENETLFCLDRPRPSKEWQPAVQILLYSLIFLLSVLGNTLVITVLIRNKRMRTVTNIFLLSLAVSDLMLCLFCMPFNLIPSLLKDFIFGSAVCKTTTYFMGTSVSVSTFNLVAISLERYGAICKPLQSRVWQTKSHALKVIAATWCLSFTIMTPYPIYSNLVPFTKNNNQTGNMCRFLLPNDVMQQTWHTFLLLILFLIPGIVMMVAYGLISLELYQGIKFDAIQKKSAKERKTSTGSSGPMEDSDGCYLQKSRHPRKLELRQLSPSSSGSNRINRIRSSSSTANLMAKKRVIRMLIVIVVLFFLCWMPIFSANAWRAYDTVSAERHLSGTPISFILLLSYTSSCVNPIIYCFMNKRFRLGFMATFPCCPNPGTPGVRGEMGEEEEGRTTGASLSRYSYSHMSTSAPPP
Description: The compounds of the examples were also tested in a CCKA binding assay as follows:
The pancreatata were removed from male guinea-pigs (200-300 g; Dunkin Hartley) and placed in ice-cold HEPES buffer (pH 7.2 @ 21±3°). The pancreatata were homogenised in 40 ml ice-cold HEPES buffer using a polytron (Brinkmann, PT10, setting 10) 4×1 second. The homogenate was centrifuged at 39,800 g for 15 min at 4°. The supernatant was discarded and the pellet re-suspended using a Teflon-in-glass homogeniser in 20 volumes of fresh buffer and re-centrifuged as above. The final pellet was re-suspended using a Teflon-in-glass homogeniser to a tissue concentration of 1 mg.ml^-1 (original wet weight), and filtered through 500 μm pore-size Nytex mesh.
The membranes (400 μl; containing 0.375 μM PD134,308) are incubated for 150 minutes at 21±3° in a final volume of 0.5 ml with HEPES buffer containing [^125 I]-CCK8 (S)(50 μl; pM) and competing compound. Total and non-specific binding of [^125 I]-CCK8 (S) are defined using 50 μl of buffer and 50 μl of 100 nM L-364,718 respectively. The assay is terminated by rapid filtration through pre-soaked Whatman GF/B filters using a Brandell Cell Harvester. The filters were washed (3×3 ml) with ice-cold 50 mM Tris HCl (pH 7.4 at 4°) and bound radioactivity is determined by counting (1 min) in a gamma counter.

`O=C(NCC12CC3CC(CC(C3)C1)C2)C1C2C=CC(c3ccccc32)C1C(=O)N[C@H](Cc1c[nH]c2ccccc12)C(=O)O` (single isomer, unassigned) [Example 18, exo-cis-7-(2-R-(3-indolyl)-1-carboxy-ethylaminocarbonyl)-8-(1-adamantylmethylaminocarbonyl)-5,6-benzobicyclo[2.2.2]oct-2-ene] gave a Kb [1] of 1 µM, a Ki [2] of 0.794 µM and a Ki [3] of 1 µM.
In the case of `O=C(O)CNC(=O)[C@H]1CCCN1C(=O)C1C2c3ccccc3C(c3cc4ccccc4cc32)C1C(=O)NCC12CC3CC(CC(C3)C1)C2` (single isomer, unassigned) [Example 37, cis-7-(2R-carboxymethylaminocarbonyl-pyrrolidinocarbonyl)-8-(1-adamantylmethylaminocarbonyl)-2,3-benzo-5,6-(2,3-naphtho)bicyclo[2.2.2]octane], the Kb [1] is reported as 0.501 µM, the Ki [2] is reported as 0.158 µM and the Ki [3] is reported as 3.16 µM.
In the case of `O=C(O)CNC(=O)[C@H]1CCCN1C(=O)C1C2c3ccccc3C(c3cc4ccccc4cc32)C1C(=O)NCC12CC3CC(CC(C3)C1)C2` (single isomer, unassigned) [Example 38, cis-7-(2R-carboxymethylaminocarbonyl-pyrrolidinocarbonyl)-8-(1-adamantylmethylaminocarbonyl)-2,3-benzo-5,6-(2,3-naphtho)bicyclo[2.2.2]octane], the Kb [1] is reported as 0.631 µM, the Ki [2] is reported as 0.251 µM and the Ki [3] is reported as 7.94 µM.
Compound `C[C@H](NC(=O)[C@@H]1CCCN1C(=O)C1C2CCC(c3ccccc32)C1C(=O)NCC12CC3CC(CC(C3)C1)C2)C(=O)O` (stereo partly drawn) [Example 43, cis-exo-7-(2S-(1S-carboxyethylaminocarbonyl)-pyrrolidinocarbonyl)-8-(1-adamantylmethylaminocarbonyl)-2,3-benzobicyclo[2.2.2]octane] has a Ki [2] of 2 µM and a Ki [3] of 10 µM.
“(±)-endo-cis-8-(1-adamantylmethylaminocarbonyl)-2-(±)-benzyl-5,6-benzobicyclo[2.2.2]octane-7-carboxylic acid [Example 36]” was tested, and the “CCKB pKi” value [2] was 5.8 and the “CCKA pKi” value [3] was 5.4.
“endo-cis-7-(2-R-carboxy-pyrrolidinocarbonyl)-8-(1-adamantylmethylaminocarbonyl)-2-oxo-5,6-benzobicyclo[2.2.2]octane [Example 35]” was tested, and the “CCKB pKi” value [2] was 5.0 and the “CCKA pKi” value [3] was 4.8.
With “exo-cis-7-(2-R-(3-indolyl)-1-carboxy-ethylaminocarbonyl)-8-(1-adamantylmethylaminocarbonyl)-5,6-benzobicyclo[2.2.2]oct-2-ene [Example 17]” the “Gastrin pKB” value ([1]; 60 min) was 6.2, the “CCKB pKi” value [2] was 6.8 and the “CCKA pKi” value [3] was 6.3.
